Data reported in PubChem BioAssay (NCI).
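Briefly, cells in 96-well plates were exposed to five compound concentrations for 48 h, and endpoints were estimated by linear interpolation. At the GI50, growth is halved. At the TGI there is no net growth.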

Columns and labels:
Assay in all cases: growth of human tumour cells (NCI), 48 h
[1] = tested on: NCI-H23 lung
[2] = tested on: UACC-62 melanoma
[3] = tested on: ACHN renal
[4] = tested on: TK-10 renal
[5] = tested on: SNB-75 CNS
[6] = tested on: OVCAR-5 ovarian
[7] = tested on: A498 renal
[8] = tested on: K-562 leukemia
[9] = tested on: OVCAR-4 ovarian
[10] = tested on: MDA-MB-231 breast

Row | Compound | TGI [1] [µM] | TGI [2] [µM] | TGI [3] [µM] | TGI [4] [µM] | TGI [5] [µM] | TGI [6] [µM] | TGI [7] [µM] | TGI [8] [µM] | TGI [9] [µM] | GI50 [1] [µM] | GI50 [2] [µM] | GI50 [3] [µM] | GI50 [4] [µM] | GI50 [5] [µM] | GI50 [10] [µM] | TGI [10] [µM] | GI50 [9] [µM] | GI50 [6] [µM] | GI50 [8] [µM] | GI50 [7] [µM]
1 | Oc1cccc(C2SCc3nc4ccccc4n32)c1 (stereo not drawn) | > 100 | > 100 | > 100 | > 100 | > 100 | > 100 | > 100 | > 100 | – | – | – | – | – | – | – | – | – | – | – | –
2 | Fc1cccc(F)c1C1SCc2nc3ccccc3n21 (stereo not drawn) | > 100 | > 100 | > 100 | > 100 | > 100 | > 100 | > 100 | > 100 | > 100 | – | – | – | – | – | – | – | – | – | – | –
3 | CCOC(=O)c1cc(C(=O)c2cc(OC)cc(OC)c2)n2ncccc12 | > 100 | > 100 | > 100 | > 100 | > 100 | > 100 | – | > 100 | > 100 | 4.9 | 0.523 | 12.2 | 9.78 | 0.399 | 8.18 | > 100 | 17 | 43.5 | 0.539 | –
4 | C#C[C@]1(O)CC[C@H]2[C@@H]3CC=C4c5nc(Nc6ccc(OC)cc6OC)sc5CC[C@]4(C)[C@H]3CC[C@@]21C | 12 | 5.04 | 10.2 | 15.6 | – | 12.2 | 1.23 | 13 | > 100 | 2.18 | 1.76 | 2.06 | 3.9 | – | 1.26 | 5.34 | 4.44 | 2.53 | 0.525 | 0.152
5 | CN(C)CCCC1(c2ccc(F)cc2)OCc2cc(-c3ccc4cc[nH]c4c3)ccc21 (stereo not drawn) | 4.11 | 3.77 | 4.82 | 4.09 | 3.54 | 4.3 | – | 4.08 | 4.72 | 1.97 | 1.85 | 2.12 | 2.03 | 1.35 | 1.65 | 3.22 | 2.16 | 1.95 | 1.93 | –
6 | N#Cc1cccc(Nc2nccc(-c3cnn4ncccc34)n2)c1 | 0.0239 | 0.0116 | > 25 | 0.0172 | 0.012 | > 25 | 0.0091 | > 25 | – | 0.00686 | 0.00396 | 0.00487 | 0.00603 | 0.00494 | – | – | 0.0322 | 0.00823 | 0.00782 | 0.00371
7 | CNC(=O)OCc1nc(S(C)=O)n(C)c1COC(=O)NC (stereo not drawn) | > 100 | > 65.9 | > 78.6 | > 100 | > 100 | > 100 | > 65.6 | > 100 | > 71.6 | – | – | – | – | – | – | – | – | – | – | –
8 | COCCOC(C)C(/C=N/NC(N)=S)=N/NC(N)=S (stereo not drawn) | > 100 | > 100 | > 100 | > 100 | > 100 | > 100 | > 100 | > 100 | > 100 | > 100 | > 100 | > 100 | > 100 | > 100 | – | – | 0.0355 | > 100 | 0.0574 | > 100
9 | C=C(CO)CC(O)c1ccccc1 (stereo not drawn) | > 100 | > 100 | > 100 | > 100 | > 100 | > 100 | > 100 | > 100 | > 100 | – | – | – | – | – | – | – | – | – | – | –
10 | CSc1s[s+]c(SC)c1[O-] | 50.4 | 28.2 | > 100 | > 100 | > 100 | > 100 | > 100 | 25.2 | > 100 | – | – | – | – | – | – | – | – | – | – | –
11 | Cc1ccccc1NC(=O)C(=O)Cc1nc2ccccc2s1 | > 100 | – | > 100 | > 100 | > 100 | > 100 | > 100 | > 100 | > 100 | – | – | – | – | – | – | – | – | – | – | –
12 | COc1cc2cc(C(=O)O)[nH]c2cc1OCc1ccccc1 | > 100 | > 100 | > 100 | > 100 | > 100 | > 100 | – | > 100 | > 100 | > 100 | > 100 | > 100 | > 100 | > 100 | > 100 | > 100 | > 100 | > 100 | > 100 | –
13 | Clc1ccc2c(NCCCN3CCN(c4nc(-n5ccnc5)nc5ccccc45)CC3)ccnc2c1 | > 100 | > 67.1 | > 56.5 | 3.39 | 3.25 | > 100 | > 26.8 | 6.13 | > 100 | > 27.5 | > 37.7 | > 23.4 | 1.72 | 1.58 | – | – | > 100 | > 100 | 2.1 | 2.55
14 | CCCCCN(CCCCC)C(=O)[C@@H](CCC(=O)OCc1ccccc1)NC(=O)c1cc2ccccc2[nH]1 | > 100 | > 100 | > 100 | – | > 100 | > 100 | > 100 | > 100 | > 100 | – | – | – | – | – | – | – | – | – | – | –
15 | CN(C)CC1(C)CC/C(=C\c2ccc3c(c2)OCO3)C1=O (stereo not drawn) | > 100 | > 100 | > 100 | > 100 | > 100 | > 100 | > 100 | > 100 | > 100 | – | – | – | – | – | – | – | – | – | – | –
16 | N/C(=N\C(=S)N1CCCCC1)N1CCCCC1 | > 100 | > 100 | > 100 | > 100 | > 100 | > 100 | > 100 | > 100 | > 100 | – | – | – | – | – | – | – | – | – | – | –
17 | COc1ccc2cc(C(=O)/C=C/c3ccc(OC)c(OC)c3)ccc2c1 | – | 39.2 | 31.2 | > 100 | – | – | – | 94.9 | – | – | 16.2 | 14.5 | 53.1 | – | 4.75 | 42.8 | – | – | 5 | –
